Read-outs that look alike come from different tables or passages of the source.
How the values were obtained:
TNFα = assay: cells; type: cell-based, human; settings: Homo sapiens, Monocyte, LPS-stimulated human monocytes, read-out: EC50 TNF
IRAK4 enzyme = IRAK4 enzyme (Homo sapiens (Human), UniProt Q9NWZ3); assay: biochemical; type: biochemical; settings: IRAK4 enzyme, 500 μM ATP
IRAK4 enzyme, sequence (Q9NWZ3 whole entry): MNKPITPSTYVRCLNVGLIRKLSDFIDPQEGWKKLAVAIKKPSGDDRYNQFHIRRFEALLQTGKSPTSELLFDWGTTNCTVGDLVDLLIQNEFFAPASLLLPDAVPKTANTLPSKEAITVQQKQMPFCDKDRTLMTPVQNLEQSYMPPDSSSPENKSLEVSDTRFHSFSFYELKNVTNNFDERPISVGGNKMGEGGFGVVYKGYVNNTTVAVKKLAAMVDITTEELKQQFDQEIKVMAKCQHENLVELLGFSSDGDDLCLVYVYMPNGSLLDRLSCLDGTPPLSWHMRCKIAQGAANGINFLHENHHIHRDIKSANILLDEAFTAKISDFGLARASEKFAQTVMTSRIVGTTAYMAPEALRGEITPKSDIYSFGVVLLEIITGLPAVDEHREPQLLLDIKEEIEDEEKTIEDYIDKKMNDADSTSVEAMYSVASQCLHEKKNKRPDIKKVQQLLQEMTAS

Structure (SMILES) | EC50 (TNFα; TNFα content) [µM] | IC50 (IRAK4 enzyme; TR-FRET (HTRF)) [µM] | EC50 (TNFα; TNFα by TR-FRET) [µM] | IC50 (IRAK4 enzyme; TR-FRET) [µM]
CC(C)(O)[C@H](F)CNC(=O)c1cnc(-c2ccc3cc(C#N)cnn23)cc1N[C@H]1C[C@H](Oc2ccccc2)C1 [Example 708, 6-(3-cyanopyrrolo[1,2-b]pyridazin-7-yl)-N-((R)-2-fluoro-3-hydroxy-3-methylbutyl)-4-(((1r,3R)-3-phenoxycyclobutyl)amino) nicotinamide] | 0.057 | 0.001 |  | 
CC(C)(O)[C@H](F)CNC(=O)c1cnc(-c2ccc3cc(C#N)cnn23)cc1N[C@H]1CC[C@H](N2CCC(F)(F)C2)CC1 [Example 723, 6-(3-cyanopyrrolo[1,2-b]pyridazin-7-yl)-4-(((1r,4R)-4-(3,3-difluoropyrrolidin-1-yl)cyclohexyl)amino)-N-((R)-2-fluoro-3-hydroxy-3-methylbutyl)nicotinamide] | 0.793 | 0.007 |  | 
Cc1ncoc1-c1ccc(Nc2cc(-c3ccc4cc(C#N)cnn34)ncc2C(=O)NC[C@@H](F)C(C)(C)O)cn1 [Example 632, (R)-6-(3-cyanopyrrolo[1,2-b]pyridazin-7-yl)-N-(2-fluoro-3-hydroxy-3-methylbutyl)-4-((6-(4-methyloxazol-5-yl)pyridin-3-yl)amino) nicotinamide] | 0.028 | < 0.001 |  | 
COC(=O)N1CC(CNc2cc(-c3ccc4cc(C#N)cnn34)ncc2C(=O)NC[C@@H](F)C(C)(C)O)C1 [Example 906, (R)-methyl 3-(((2-(3-cyanopyrrolo[1,2-b]pyridazin-7-yl)-5-((2-fluoro-3-hydroxy-3-methylbutyl)carbamoyl)pyridin-4-yl)amino)methyl) azetidine-1-carboxylate] |  |  | 0.186 | 0.01
CC(C)(O)[C@H](F)CNC(=O)c1cnc(-c2ccc3cc(C#N)cnn23)cc1NC[C@@H]1CCN1CC(F)(F)F [Example 891, 6-(3-cyanopyrrolo[1,2-b]pyridazin-7-yl)-N-((R)-2-fluoro-3-hydroxy-3-methylbutyl)-4-((((S)-1-(2,2,2-trifluoroethyl)azetidin-2-yl)methyl)amino)nicotinamide] |  |  | 0.249 | 0.004
CC(C)(O)[C@H](F)CNC(=O)c1cnc(-c2ccc3cc(C#N)cnn23)cc1Nc1cnn(CC(F)(F)F)c1 [Example 49, (R)-6-(3-cyanopyrrolo[1,2-b]pyridazin-7-yl)-N-(2-fluoro-3-hydroxy-3-methylbutyl)-4-((1-(2,2,2-trifluoroethyl)-1H-pyrazol-4-yl)amino)nicotinamide] | 0.008 |  |  | < 0.001
CNC(=O)c1cnc(-c2ccc3cc(C#N)cnn23)cc1N[C@H]1C[C@H](C(=O)NC)C1 [Example 472, 6-(3-cyanopyrrolo[1,2-b]pyridazin-7-yl)-N-methyl-4-(((1r,3r)-3-(methylcarbamoyl)cyclobutyl)amino) nicotinamide] | 5.41 | 0.043 |  | 
C=CC(=O)N[C@H]1CC[C@H](Nc2cc(-c3ccc4cc(C#N)cnn34)ncc2C(=O)NC[C@@H](F)C(C)(C)O)CC1 [Example 425, 4-(((1r,4R)-4-acrylamidocyclohexyl)amino)-6-(3-cyano-pyrrolo[1,2-b]pyridazin-7-yl)-N-((R)-2-fluoro-3-hydroxy-3-methylbutyl) nicotinamide] | 0.12 | 0.002 |  | 
CC(C)(O)[C@H](F)CNC(=O)c1cnc(-c2ccc3cc(C#N)cnn23)cc1Nc1ccc(-c2cn[nH]c2)nc1 [Example 172, (R)-4-((6-(1H-pyrazol-4-yl)pyridin-3-yl)amino)-6-(3-cyanopyrrolo[1,2-b]pyridazin-7-yl)-N-(2-fluoro-3-hydroxy-3-methylbutyl) nicotinamide] | 0.076 |  |  | < 0.001
CC(=O)NC(C)(C)CCNC(=O)c1cnc(-c2ccc3cc(C#N)cnn23)cc1NC12CCC(O)(CC1)CC2 [Example 344, N-(3-acetamido-3-methylbutyl)-6-(3-cyanopyrrolo[1,2-b]pyridazin-7-yl)-4-((4-hydroxybicyclo[2.2.2]octan-1-yl)amino) nicotinamide] | 0.048 |  |  | 0.002
CC(C)(O)[C@H](F)CNC(=O)c1cnc(-c2ccc3cc(C#N)cnn23)cc1Nc1ccc(CO)cn1 [Example 670, (R)-6-(3-cyanopyrrolo[1,2-b]pyridazin-7-yl)-N-(2-fluoro-3-hydroxy-3-methylbutyl)-4-((5-(hydroxymethyl)pyridin-2-yl)amino)nicotinamide] | > 10 | 0.093 |  | 
CC(C)(O)[C@H](F)CNC(=O)c1cnc(-c2ccc3cc(C#N)cnn23)cc1N[C@H]1CN2CCC1CC2 [Example 266, 6-(3-cyanopyrrolo[1,2-b]pyridazin-7-yl)-N-((R)-2-fluoro-3-hydroxy-3-methylbutyl)-4-(((R)-quinuclidin-3-yl)amino)nicotinamide] | 7.59 |  |  | 0.131
CC(C)Nc1cc(-c2ccc3cc(C#N)cnn23)ncc1C(=O)N[C@@H]1CCOC[C@H]1F [Example 323, 6-(3-cyanopyrrolo[1,2-b]pyridazin-7-yl)-N-((3S,4R)-3-fluoro-tetrahydro-2H-pyran-4-yl)-4-(isopropylamino) nicotinamide] | 0.187 |  |  | 0.005
CC(C)(O)[C@H](F)CNC(=O)c1cnc(-c2ccc3cc(C#N)cnn23)cc1Nc1nc(C(F)(F)F)cs1 [Example 374, (R)-6-(3-cyanopyrrolo[1,2-b]pyridazin-7-yl)-N-(2-fluoro-3-hydroxy-3-methylbutyl)-4-((4-(trifluoromethyl)thiazol-2-yl)amino)nicotinamide] | 0.327 |  |  | 0.001
N#Cc1cnn2c(-c3cc(NC45CCC(O)(CC4)CC5)c(C(=O)N[C@H]4CCNC4=O)cn3)ccc2c1 [Example 960, (S)-6-(3-cyanopyrrolo[1,2-b]pyridazin-7-yl)-4-((4-hydroxybicyclo[2.2.2]octan-1-yl)amino)-N-(2-oxo-pyrrolidin-3-yl)nicotinamide] |  |  | 0.316 | 0.001
CC(C)(O)[C@H](F)CNC(=O)c1cnc(-c2ccc3cc(C#N)cnn23)cc1Nc1ccc(C#N)cc1 [Example 140, (R)-4-((4-cyanophenyl)amino)-6-(3-cyanopyrrolo[1,2-b]pyridazin-7-yl)-N-(2-fluoro-3-hydroxy-3-methylbutyl)nicotinamide] | 0.058 |  |  | < 0.001
CN1CCC[C@@H](Nc2cc(-c3ccc4cc(C#N)cnn34)ncc2C(=O)NC[C@@H](F)C(C)(C)O)C1 [Example 259, 6-(3-cyanopyrrolo[1,2-b]pyridazin-7-yl)-N-((R)-2-fluoro-3-hydroxy-3-methylbutyl)-4-(((R)-1-methylpiperidin-3-yl)amino)nicotinamide] | 0.152 |  |  | 0.006
CC(C)(O)[C@H](F)CNC(=O)c1cnc(-c2ccc3cc(C#N)cnn23)cc1Nc1ccc(-n2ccccc2=O)cc1 [Example 385, (R)-6-(3-cyanopyrrolo[1,2-b]pyridazin-7-yl)-N-(2-fluoro-3-hydroxy-3-methylbutyl)-4-((4-(2-oxopyridin-1(2H)-yl)phenyl)amino)nicotinamide] | 0.036 |  |  | < 0.001
CC(C)(O)[C@H](F)CNC(=O)c1cnc(-c2ccc3cc(C#N)cnn23)cc1Nc1cnc2c(c1)CC(=O)N2 [Example 668, (R)-6-(3-cyanopyrrolo[1,2-b]pyridazin-7-yl)-N-(2-fluoro-3-hydroxy-3-methylbutyl)-4-((2-oxo-2,3-dihydro-1H-pyrrolo[2,3-b]pyridin-5-yl)amino)nicotinamide] | 0.165 | 0.001 |  | 
CC(=O)N1C[C@H]2C[C@@H](Nc3cc(-c4ccc5cc(C#N)cnn45)ncc3C(=O)NC[C@@H](F)C(C)(C)O)C[C@H]2C1 [Example 246, 4-(((3aR,5r,6aS)-2-acetyl-octahydrocyclopenta[c]pyrrol-5-yl)amino)-6-(3-cyanopyrrolo[1,2-b]pyridazin-7-yl)-N-((R)-2-fluoro-3-hydroxy-3-methylbutyl)nicotinamide] | 0.637 |  |  | 0.017
CC(=O)NC[C@@H]1CCCN1c1ccc(Nc2cc(-c3ccc4cc(C#N)cnn34)ncc2C(=O)NC[C@@H](F)C(C)(C)O)cn1 [Example 878, 4-((6-((S)-2-(acetamidomethyl)pyrrolidin-1-yl)pyridin-3-yl)amino)-6-(3-cyanopyrrolo[1,2-b]pyridazin-7-yl)-N-((R)-2-fluoro-3-hydroxy-3-methylbutyl)nicotinamide] |  |  | 0.141 | 0.002
CC(C)(O)[C@H](F)CNC(=O)c1cnc(-c2ccc3cc(C#N)cnn23)cc1N[C@H]1CC[C@@H](NC(=O)C(F)(F)F)CC1 [Example 319, 6-(3-cyanopyrrolo[1,2-b]pyridazin-7-yl)-N-((R)-2-fluoro-3-hydroxy-3-methyl-butyl)-4-(((1s,4S)-4-(2,2,2-trifluoroacetamido)cyclo-hexyl)amino)nicotinamide] | 2.22 |  |  | 0.019
CC(C)(O)[C@H](F)CNC(=O)c1cnc(-c2ccc3cc(C#N)cnn23)cc1NC12CCC(C(F)F)(CC1)CC2 [Example 537, (R)-6-(3-cyanopyrrolo[1,2-b]pyridazin-7-yl)-4-((4-(difluoromethyl)bicyclo[2.2.2]octan-1-yl)amino)-N-(2-fluoro-3-hydroxy-3-methylbutyl)nicotinamide] | 0.018 | 0.001 |  | 
CC(C)Nc1cc(-c2ccc3cc(C#N)cnn23)ncc1C(=O)NCC1CS(=O)(=O)C1 [Example 72, 6-(3-cyanopyrrolo[1,2-b]pyridazin-7-yl)-N-((1,1-dioxidothietan-3-yl)methyl)-4-(isopropylamino) nicotinamide] | 0.159 |  |  | 0.004
Cc1cc(Nc2cc(-c3ccc4cc(C#N)cnn34)ncc2C(=O)NC[C@@H](F)C(C)(C)O)ccc1C#N [Example 583, (R)-4-((4-cyano-3-methylphenyl)amino)-6-(3-cyanopyrrolo[1,2-b]pyridazin-7-yl)-N-(2-fluoro-3-hydroxy-3-methylbutyl)nicotinamide] | 0.14 | 0.002 |  | 
